# Measurements reported in US7704948B2, “Pharmaceutical composition” (Euro-Celtique S.A., priority 2001, dated 2010).
# Key:
# [1] = Stability of bisacodyl in poloxamer melt; type: physicochemical; conditions: hot melt of bisacodyl and poloxamer
# Description: Such a product will have advantages with regard to dosage form and other properties. […] Furthermore production scale enteric coating of capsules containing a low melting point, waxy, solid is very difficult due to melting and leakage or softening and deformation of the waxy, low melting point poloxamer.
# [2] = cited from earlier work
structure (smiles),measurement,setting,value
CC(=O)Oc1ccc(C(c2ccc(OC(C)=O)cc2)c2ccccn2)cc1 [Bisacodyl],stability of bisacodyl in poloxamer,[1],unstable in poloxamer
same,time to action in the large intestine,[2]; following oral administration,6 to 12 h
same,onset of action,[2]; suppositories,20 to 60 min
